We go through eleven substances from patent US10806798B2, “Compound with effects of thrombolysis, free radical scavenging and thrombus-targeting” (Shanghai Lumosa Therapeutics Co., Ltd., priority 2012, dated 2020).

The test system of one experiment is thrombus. In words: In vivo thrombolysis, rat arteriovenous bypass thrombolysis model. Also on record: species or system SD rats. The note with it: 0.1 μmol/kg, after 1 h, n = 10. On the procedure: SD rats (male, 220 to 230 g) were anaesthetized by intraperitoneal injection of a urethane solution at a dosage of 1200 mg/kg. The anaesthetized rats were fixed in a supine position, and the right common carotid artery was dissected, clamped at the proximal end with an arterial clip, and penetrated with a suture at the proximal and distal ends, respectively. The suture at the distal end is clipped tightly by a hemostatic clamp at the fur. Cannulation was performed at the distal end, the arterial clamp was removed, and about 1 ml arterial blood was discharged into a 1 ml eppendorf. 0.1 ml rat arterial blood was injected into a vertically fixed glass tube (15 mm in length, with an inner diameter of 2.5 mm and an outer diameter of 5.0 mm, sealed with a rubber stopper at the bottom), into which was immediately inserted a thrombus immobilization screw made of stainless steel. […] 15 min after the blood was coagulated, the rubber stopper at the bottom of the glass tube was removed, the stem of the thrombus immobilization screw was nipped by forceps, and the thrombus-wrapped thrombus immobilization screw was carefully taken out of the glass tube and then accurately weighed.
A bypass cannula was composed of 3 segments. The middle segment was a polyethylene tubing having a length of 60.0 mm and an inner diameter of 3.5 mm. The segments on both ends were similar polyethylene tubes having a length of 100.0 mm, an inner diameter of 1.0 mm and an outer diameter of 2.0 mm, one end of which was pulled to form a tip, with an outer diameter of 1.0 mm, that could be inserted into the rat carotid artery or vein, and the other end of which was sheathed by a polyethylene tube having a length of 7.0 mm and an outer diameter of 3.5 mm (thickened in order to be inserted into the polyethylene tubing of the middle segment). The inner wall of the 3-segment cannula was entirely silylated (with 1% silicone oil in ethyl ether). The thrombus-wrapped thrombus immobilization screw was placed into the polyethylene tubing of the middle segment, and both ends of the tubing sheathed the thickened ends of the two polyethylene tubes. The cannula was filled with a heparin solution in normal saline (50 IU/kg) through the tip end by using an injector and was ready for use. The trachea of the anaesthetized rat was then dissected and tracheal cannulation was performed. The left external carotid vein of the rat was dissected, and penetrated with a suture at the proximal and distal ends, respectively. An uneven open incision was careful made on the exposed left external carotid vein, and the tip of the bypass cannula prepared as described above was inserted into the proximal end of the open incision in the left external carotid vein, away from the stem of the thrombus immobilization screw in the middle segment of the bypass cannula (which accommodated the accurately weighed thrombus immobilization screw). A precise amount of heparin in saline (50 IU/kg) was injected through the tip at the other end by using an injector. At this moment, without removing the injector from the ethylene tube, the tubing between the injector and the polyethylene tube was clamped with forceps. The blood flow was stopped by clamping the proximal end of the right common carotid artery with an arterial clip, and an uneven open incision was cut carefully across the common carotid artery near the clip. The injector was pulled out of the tip of the polyethylene tube, and the tip of the polyethylene tube was then inserted into the proximal end of the artery open incision. Both ends of the bypass cannula were fixed to the artery or vein with #4 sutures. […]

Experiment [1] relates to thrombus from rat arterial blood. In words: In vitro thrombolysis. Also noted: species or system SD rats. The note with it: 100 nM, 2 h at 37° C., n = 6. On the procedure: SD rats (male, 350 to 400 g) were anaesthetized by intraperitoneal injection of a urethane solution at a dosage of 1200 mg/kg. The anaesthetized rats were fixed in a supine position, and the right common carotid artery was dissected, clamped at the proximal end with an arterial clip, and penetrated with a suture at the proximal and distal ends, respectively. The suture at the distal end is clipped tightly by a hemostatic clamp at the fur. Cannulation was performed at the distal end, the artery clamp was removed, and the total arterial blood was discharged into a 50 ml container previously treated with silicone oil. […] rat arterial blood was injected into a vertically fixed glass tube (20 mm in length, with an inner diameter of 4 mm and an outer diameter of 5 mm, sealed with a rubber stopper at the bottom), into which was immediately inserted a thrombus immobilization screw made of stainless steel. […] 40 min after the blood was coagulated, the rubber stopper at the bottom of the glass tube was removed, the stem of the thrombus immobilization screw was nipped by forceps, and the thrombus-wrapped thrombus immobilization screw was carefully taken out from the glass tube. The screw was then suspended and dipped in triple-distilled water to remove excessive blood, and accurately weighed after 1 h. The thrombus was suspended in 8 mL of normal saline, or a solution of compounds Ia-Il in normal saline (at a concentration of 100 nM), or a solution of ARPAK (SEQ. ID NO. 4), GRPAK (SEQ. ID NO. 5), RPAK (SEQ. ID NO. 3) or PAK in normal saline (at a concentration of 100 nM), or a solution of urokinase in normal saline (100 IU/mL), then shaked at 37° C. in a thermostatic shaker (63 r/min), and removed after 2 h and accurately weighed to determine the weight of the thrombus.

The subject of the next experiment is euglobulin clot. Briefly: Euglobulin clot lysis. The format is biochemical, Pig. The note with it: 10 μL of 1 mM solution; after 4 h; n = 3. The method, then:
Pig blood was taken and mixed with 3.8% sodium citrate in a volume ratio of 9:1, immediately centrifuged at 3000 r/min for 10 min, and platelet-poor plasma was separated. 2 mL platelet-poor pig plasma and 36 mL ultrapure water were added into a 50 mL centrifuge tube. In each tube, 0.4 mL acetic acid (1%) was added and thoroughly mixed, and the tube was placed in a 4° C. refrigerator for 10 min and then centrifuged at 3000 r/min for 10 min. The centrifuge tubes were inverted, and then the inner wall of the tubes was dried using a filter paper after the liquid was drained. The euglobuin pellets resulting from centrifugation was freeze-dried for about 40 min and scratched out. About 35 mg euglobuin was taken and dissolved in 7 ml borax buffer (pH 9.28). The euglobuin were mostly dissolved after 1 h, into which 0.7 mL CaCl2 solution (25 mM) was added, and immediately plated on a 10×10 cm glass plate with a thickness of about 1 mm. After clot formation, 10 μL normal saline, or 10 μL of a solution of one of compounds Ia to Il in normal saline (1 mM) or 10 μL of a urokinase solution in normal saline (0.8 mg/mL) was pipetted and spotted onto the clot plate, with an interval between every two drops more than 1.5 cm, and each sample was spotted 3 times.

For another experiment, the system named is rats with stroke. Briefly: Cerebral infarction volume after immediate treatment of stroke (TTC staining). The format is in vivo, SD rats. The note with it: n = 10. On the procedure:
After the rats were awake for 24 h and assessed for their degree of damage in neural function in Experimental example 6, they were anesthesized with urethane followed by immediate decapitation and removal of the brain. Brain tissues were kept in a −20° C. refrigerator for 2 h, and coronal sections of about 2 mm were successively sliced from the prefrontal end for a total of 6 sections, and then placed into a 2% TTC solution to incubate in darkness at 37° C. for 30 min. The color change in brain sections was observed: normal brain tissues were stained red by TTC, while ischemic brain tissues, i.e., brain tissues with infracts, appeared in a white color. Photographs were taken by using a digital camera and processed with SPSS statistics software, and the volume of infarction in brain tissues and the volume of normal brain tissues in the coronal sections were calculated.

Side chains are listed from the residue outwards. Ends that are not written are not given here.

Turning to “1,3-dioxo-2-{4′-oxyacetyl-[N^ω-(Ala-Arg-Pro-Ala-Lys)-Lys-Arg-Gly-Asp-Phe]phenyl}-4,4,5,5-tetramethylimidazoline [Ic]”, the results for the “Weight reduction in thrombus (Mean ± SD mg)” value (in the experiment on thrombus; in experiment [1]) were 15.79 ± 3.07 mg and 27.33 ± 2.07 mg, respectively. In the experiment on euglobulin clot, the “Diameter (Mean ± SD mm) of euglobulin clot lysis” value (“Diameter (Mean ± SD mm)” for short) turned out to be 3.8 mm. Besides, the “Percentage of infarction volume (Mean ± SD %)” value (“Percentage … (Mean ± SD %)” below) with rats with stroke was 7.40 ± 1.65%.
For “1,3-dioxo-2-{4′-oxyacetyl-[N^ω-(Ala-Arg-Pro-Ala-Lys)-Lys-Arg-Gly-Asp-Ser]phenyl}-4,4,5,5-tetramethylimidazoline [Ia]”, the “Weight reduction in thrombus (Mean ± SD mg)” value in the experiment on thrombus was 15.39 ± 3.19 mg; in experiment [1] it was 28.50 ± 2.59 mg. In the experiment with euglobulin clot, the “Diameter (Mean ± SD mm)” value was found to be 4.0 mm. Further, the “Percentage … (Mean ± SD %)” value in the experiment with rats with stroke is 7.21 ± 0.82%.
In the case of “1,3-dioxo-2-{4′-oxyacetyl-[N^ω-(Ala-Arg-Pro-Ala-Lys)-Lys-Arg-Gly-Asp-Val]phenyl}-4,4,5,5-tetramethylimidazoline [Ib]”, the “Weight reduction in thrombus (Mean ± SD mg)” value in the experiment on thrombus is on record as 14.35 ± 2.95 mg; in experiment [1] it was 28.17 ± 2.31 mg. Also, the “Diameter (Mean ± SD mm)” value in the experiment with euglobulin clot was found to be 5.2 mm. The “Percentage … (Mean ± SD %)” value in the experiment with rats with stroke is reported as 7.13 ± 0.83%.
“1,3-dioxo-2-{4′-oxyacetyl-[N^ω-(Arg-Pro-Ala-Lys)-Lys-Arg-Gly-Asp-Phe]phenyl}-4,4,5,5-tetramethylimidazoline [Ii]”: the entries for the “Weight reduction in thrombus (Mean ± SD mg)” value (in the experiment on thrombus; in experiment [1]) were 15.73 ± 2.95 mg and 24.83 ± 1.17 mg, respectively. Also, the “Diameter (Mean ± SD mm)” value with euglobulin clot is recorded as 4.0 mm. Moreover, the “Percentage … (Mean ± SD %)” value with rats with stroke is listed as 7.06 ± 1.08%.
Taken in the same sequence, the figures for “1,3-dioxo-2-{4′-oxyacetyl-[N^ω-(Arg-Pro-Ala-Lys)-Lys-Arg-Gly-Asp-Ser]phenyl}-4,4,5,5-tetramethylimidazoline [Ig]” were 16.35 ± 2.42 mg, 27.83 ± 2.56 mg, 5.2 mm and 6.40 ± 0.28%.
As for “1,3-dioxo-2-{4′-oxyacetyl-[N^ω-(Arg-Pro-Ala-Lys)-Lys-Arg-Gly-Asp-Val]phenyl}-4,4,5,5-tetramethylimidazoline [Ih]”, the “Weight reduction in thrombus (Mean ± SD mg)” value with thrombus amounted to 15.37 ± 1.82 mg; in experiment [1], 29.33 ± 3.01 mg. The “Diameter (Mean ± SD mm)” value with euglobulin clot worked out at 4.2 mm. For the same substance, the “Percentage … (Mean ± SD %)” value in the experiment with rats with stroke came out at 7.35 ± 1.14%.
“1,3-dioxo-2-{4′-oxyacetyl-[N^ω-(Gly-Arg-Pro-Ala-Lys)-Lys-Arg-Gly-Asp-Phe]phenyl}-4,4,5,5-tetramethylimidazoline [If]”: the “Weight reduction in thrombus (Mean ± SD mg)” value (with thrombus; in experiment [1]) was 15.29 ± 3.36 mg in each case. The “Diameter (Mean ± SD mm)” value with euglobulin clot was found to be 4.5 mm. Further, the “Percentage … (Mean ± SD %)” value with rats with stroke came to 7.47 ± 1.31%.
On to “1,3-dioxo-2-{4′-oxyacetyl-[N^ω-(Gly-Arg-Pro-Ala-Lys)-Lys-Arg-Gly-Asp-Ser]phenyl}-4,4,5,5-tetramethylimidazoline”, for which the “Weight reduction in thrombus (Mean ± SD mg)” value (with thrombus; in experiment [1]) was 14.17 ± 3.55 mg throughout. The “Diameter (Mean ± SD mm)” value in the experiment on euglobulin clot is on record as 5.2 mm. Besides, the “Percentage … (Mean ± SD %)” value in the experiment on rats with stroke is recorded as 8.21 ± 1.91%.
In the case of “1,3-dioxo-2-{4′-oxyacetyl-[N^ω-(Pro-Ala-Lys)-Lys-Arg-Gly-Asp-Phe]phenyl}-4,4,5,5-tetramethylimidazoline (K([Lys-Ala-Pro])RGDF; not fully specified (N-terminus); also: 4′-oxyacetylphenyl-1,3-dioxo-4,4,5,5-tetramethylimidazoline (nitronyl nitroxide) conjugate, attachment amine not clear) [Il]”, the “Weight reduction in thrombus (Mean ± SD mg)” value with thrombus was determined as 16.21 ± 2.84 mg; in experiment [1], 25.83 ± 2.31 mg. Further, in the experiment on euglobulin clot, the “Diameter (Mean ± SD mm)” value was 4.2 mm. Moreover, the “Percentage … (Mean ± SD %)” value in the experiment with rats with stroke turned out to be 6.56 ± 0.41%.
Regarding “1,3-dioxo-2-{4′-oxyacetyl-[N^ω-(Pro-Ala-Lys)-Lys-Arg-Gly-Asp-Ser]phenyl}-4,4,5,5-tetramethylimidazoline (K([Lys-Ala-Pro])RGDS; not fully specified (N-terminus); also: 4′-oxyacetylphenyl-1,3-dioxo-4,4,5,5-tetramethylimidazoline (nitronyl nitroxide) conjugate, attachment amine not clear) [Ij]”, the “Weight reduction in thrombus (Mean ± SD mg)” value in the experiment on thrombus amounted to 14.89 ± 1.84 mg; in experiment [1], 26.16 ± 3.15 mg. Also, in the experiment on euglobulin clot, the “Diameter (Mean ± SD mm)” value is listed as 4.0 mm. Besides, the “Percentage … (Mean ± SD %)” value with rats with stroke was determined as 6.84 ± 0.82%.
With “1,3-dioxo-2-{4′-oxyacetyl-[N^ω-(Pro-Ala-Lys)-Lys-Arg-Gly-Asp-Val]phenyl}-4,4,5,5-tetramethylimidazoline (K([Lys-Ala-Pro])RGDV; not fully specified (N-terminus); also: 4′-oxyacetylphenyl-1,3-dioxo-4,4,5,5-tetramethylimidazoline (nitronyl nitroxide) conjugate, attachment amine not clear) [Ik]”, the entries for the “Weight reduction in thrombus (Mean ± SD mg)” value (in the experiment on thrombus; in experiment [1]) were 15.47 ± 2.61 mg and 25.00 ± 1.54 mg, respectively. Also, the “Diameter (Mean ± SD mm)” value with euglobulin clot stood at 4.5 mm. In the experiment on rats with stroke, the “Percentage … (Mean ± SD %)” value amounted to 7.86 ± 1.02%.
